Reference: PubChem BioAssay (NCI)
Several values for one entry are separate records, joined by “and”; a condition that tells them apart may be missing. Equal entries are not always repeated.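 Dose response: 5 concentrations. Exposure: 48 h. Format: 96-well plates. Endpoint: linear interpolation; highest concentration if not reached. GI50 marks 50% less growth. At the TGI there is no net growth.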

Experiments:
Assay in all cases: NCI-60 cell line screen, 48 h
ACHN renal = tested on: ACHN renal
COLO 205 colon = tested on: COLO 205 colon
EKVX NSCLC = tested on: EKVX NSCLC
HCT-116 colon = tested on: HCT-116 colon
HCT-15 colon = tested on: HCT-15 colon
NCI-H522 lung = tested on: NCI-H522 lung
SF-268 CNS = tested on: SF-268 CNS
SK-OV-3 ovarian = tested on: SK-OV-3 ovarian
SNB-19 CNS = tested on: SNB-19 CNS
HS 578T breast = tested on: HS 578T breast

Compound | TGI (ACHN renal) | TGI (COLO 205 colon) [µM] | TGI (EKVX NSCLC) [µM] | TGI (HCT-116 colon) | TGI (HCT-15 colon) [µM] | TGI (NCI-H522 lung) | TGI (SF-268 CNS) [µM] | TGI (SK-OV-3 ovarian) | TGI (SNB-19 CNS) [µM] | GI50 (ACHN renal) | GI50 (COLO 205 colon) [µM] | GI50 (HCT-116 colon) [µM] | GI50 (HCT-15 colon) | GI50 (HS 578T breast) [µM] | TGI (HS 578T breast) [µM] | GI50 (NCI-H522 lung) | GI50 (SF-268 CNS) | GI50 (SK-OV-3 ovarian) | GI50 (SNB-19 CNS) | GI50 (EKVX NSCLC) [µM]
CCOC(=O)C(c1ccsc1)P(=O)(OCC)OCC (stereo not drawn) | 53 µM | 26.7 | 80.1 | 25.7 µM | 37.4 | 16.9 µM | 69.6 | 77.2 µM | 44.4 | – | – | – | – | – | – | – | – | – | – | –
O=C1/C(=C/c2ccc([N+](=O)[O-])s2)Oc2ccc(Br)cc21 | 0.414 µM | 1.86 | – | 0.41 µM | 0.583 | 0.351 µM | 0.684 | 5.04 µM | 2.13 | 0.199 µM | 0.47 | 0.202 | 0.208 µM | 0.448 | > 100 | 0.177 µM | 0.256 µM | 2.09 µM | 0.42 µM | –
CC(=O)CC(=O)Nc1ccc(OS(N)(=O)=O)cc1 | > 100 µM | > 100 | > 100 | > 100 µM | > 100 | > 100 µM | > 100 | > 100 µM | > 100 | – | – | – | – | – | – | – | – | – | – | –
COC(=O)c1cc2c3cc(Cl)ccc3[nH]c2c2ncccc12 | > 100 µM | > 100 | > 100 | > 100 µM | > 100 | > 100 µM | > 100 | > 100 µM | > 100 | > 100 µM | > 100 | > 100 | > 100 µM | – | – | > 100 µM | > 100 µM | > 100 µM | > 100 µM | > 100
NNC(=S)N/N=C(\c1nc2ccc(Cl)cc2[nH]c1=O)C(O)c1cccc([N+](=O)[O-])c1 (stereo not drawn) | > 100 µM | > 58.4 | > 100 | > 31.6 µM | > 100 | > 100 µM | > 79.5 | > 100 µM | > 100 | – | – | – | – | – | – | – | – | – | – | –
CN1C=C(C(N)=O)Cc2ccsc21 | > 100 µM | > 100 | > 100 | > 100 µM | > 100 | > 100 µM | > 100 | > 100 µM | > 100 | – | – | – | – | – | – | – | – | – | – | –
CC[C@@]1(O)C(=O)OCc2c1cc1n(c2=O)Cc2cc3c(N)c(OC)ccc3nc2-1 | 0.0767 µM | 2.69 | > 100 | – | 3.52 | 1.31 µM | – | 2.29 µM | > 61.9 | 0.0255 µM | 0.263 | – | 0.283 µM | – | – | 0.0434 µM | 0.0152 µM | 0.0582 µM | < 0.0238 µM | 0.574
N/N=C1\C(=O)N(c2ccc(Cl)c(Cl)c2)C(=O)C1C(=O)Nc1ccc(Cl)c(Cl)c1 (stereo not drawn) | > 100 µM | – | > 100 | > 100 µM | > 100 | > 100 µM | > 100 | – | > 100 | – | – | – | – | – | – | – | – | – | – | –
O=[N+]([O-])C(=C1c2ccccc2-c2ccccc21)[N+](=O)[O-] | > 100 µM | > 100 | > 100 | > 100 µM | > 10 | > 100 µM | 84.8 | – | > 100 | – | – | – | – | – | – | – | – | – | – | –
CCCCCCCCCCCCNC(=S)OCCCC | > 100 µM | – | > 100 | > 100 µM | > 100 | > 100 µM | > 100 | > 100 µM | > 100 | – | – | – | – | – | – | – | – | – | – | –
O=C1CC2=CCCC2O1 (stereo not drawn) | – | > 100 | > 100 | > 100 µM | > 100 | > 100 µM | > 100 | > 100 µM | > 100 | – | – | – | – | – | – | – | – | – | – | –
COc1cc(Br)c(C=Nc2cccc3ccc(OS(=O)(=O)c4ccc([N+](=O)[O-])cc4)cc23)cc1OC | > 100 µM | > 100 | > 100 | > 100 µM | > 100 | > 100 µM | > 100 | > 100 µM | > 100 | – | – | – | – | – | – | – | – | – | – | –
COc1ccc(-c2cc(-c3ccco3)c(C#N)c(=O)n2C2OC(COC(C)=O)C(OC(C)=O)C(OC(C)=O)C2OC(C)=O)cc1 (stereo not drawn) | > 100 µM | > 100 | > 100 | > 100 µM and 21.1 µM | > 100 | > 100 µM and 60.4 µM | > 100 | > 100 µM and 64.5 µM | > 100 | > 100 µM and 31.1 µM | – | – | > 100 µM and 39 µM | – | – | 42.8 µM and 11 µM | > 100 µM and 28.2 µM | > 100 µM and 28.1 µM | > 100 µM and 42.8 µM | –
CC(C)CC1CC2C(=O)N(c3ccccc3)C(=O)C2c2[nH]c3ccccc3c21 (stereo not drawn) | > 87.7 µM | > 100 | > 100 | 34 µM | > 31.6 | > 100 µM | > 100 | 43.6 µM | > 100 | – | – | – | – | – | – | – | – | – | – | –
CCOC(=O)c1ccc(N[C@@H]2c3cc4c(cc3C(c3cc(OC)c(O)c(OC)c3)[C@H]3C(=O)OCC32)OCO4)cc1 (stereo partly drawn) | 0.75 µM and 1.44 µM | 7.68 | 9.17 | 10.5 µM | 6.17 | 4.98 µM | 15.7 | 5.16 µM | 22.2 | 0.161 µM | 0.833 | 0.835 | – | – | – | 0.395 µM and 1.28 µM | 0.394 µM | 0.37 µM | 0.261 µM | 0.591
CC1(C)CCOC(Sc2ccccc2)C1 (stereo not drawn) | > 100 µM | > 100 | > 100 | > 100 µM | > 100 | > 100 µM | > 100 | > 100 µM | > 100 | – | – | – | – | – | – | – | – | – | – | –
COc1cc(/C=C2\CC3C4CC=C5C[C@@H](N6CCCC6)CC[C@]5(C)C4CC[C@]3(C)[C@H]2OC(C)=O)ccc1OCCCn1ccnc1 (stereo partly drawn) | 1.09 µM | > 50 | 9.12 | 1.52 µM | 0.483 | > 27.5 µM | > 29.2 | – | > 50 | 0.383 µM | 0.104 | 0.0938 | 0.135 µM | 5.76 | 16.4 | 3.86 µM | 3.87 µM | – | 1.46 µM | 1.28
COC(=O)N1C=CC2=C(C)C3Nc4ccccc4C3C(C)=C2C1 (stereo not drawn) | 5.01 µM | 6.66 | > 100 | 2.57 µM | 33.6 | 10.7 µM | 74.2 | 8.71 µM | > 100 | – | – | – | – | – | – | – | – | – | – | –
CC1Nc2ccccc2NC1C=C(C#N)C#N (stereo not drawn) | 32.7 µM | 34.4 | 37.1 | 26.8 µM | 37.3 | 25.3 µM | 29.9 | 52.6 µM | 36.3 | – | – | – | – | – | – | – | – | – | – | –
